Key:
[1] = test system: cancer cell line NCI-H1975; experiment: NCI-H1975 cell proliferation assay (MTT); assay type: cell-based; conditions: Homo sapiens, NCI-H1975 cells, 72 hours treatment
Procedure: A representative number of compounds were assayed against cancer cell line NCI-H1975 using the cell proliferation assay:
1. 5×10^3 cells per well in 100 μl of medium were seeded in 96-well plate, here the medium contained 5% FBS
2. 24 hours later, 100 μl fresh medium was added with various concentrations of compounds into each well, while the medium here was free of FBS
3. After the cells were treated with compounds for 72 hours, 20 μl MTT (5 mg/ml) was added into each well, and then the assay plate was incubated at 37° C. for 4 more hours.
4. The assay plate was centrifuged at 800 g for 10 min. The medium was aspirated, 150 μl DMSO was added into each well. The plate was gently shaked for 10 min.
5. The absorbance at 570 nm was measured on the plate reader.

EGFR (L858R,T790M) = EGFR (L858R,T790M) (Homo sapiens (Human), UniProt P00533, L858R/T790M); experiment: in vitro kinase binding assay (Kd, phage-tagged kinase, qPCR)
Chain of EGFR (L858R,T790M) (P00533 25-1210 T790M/L858R): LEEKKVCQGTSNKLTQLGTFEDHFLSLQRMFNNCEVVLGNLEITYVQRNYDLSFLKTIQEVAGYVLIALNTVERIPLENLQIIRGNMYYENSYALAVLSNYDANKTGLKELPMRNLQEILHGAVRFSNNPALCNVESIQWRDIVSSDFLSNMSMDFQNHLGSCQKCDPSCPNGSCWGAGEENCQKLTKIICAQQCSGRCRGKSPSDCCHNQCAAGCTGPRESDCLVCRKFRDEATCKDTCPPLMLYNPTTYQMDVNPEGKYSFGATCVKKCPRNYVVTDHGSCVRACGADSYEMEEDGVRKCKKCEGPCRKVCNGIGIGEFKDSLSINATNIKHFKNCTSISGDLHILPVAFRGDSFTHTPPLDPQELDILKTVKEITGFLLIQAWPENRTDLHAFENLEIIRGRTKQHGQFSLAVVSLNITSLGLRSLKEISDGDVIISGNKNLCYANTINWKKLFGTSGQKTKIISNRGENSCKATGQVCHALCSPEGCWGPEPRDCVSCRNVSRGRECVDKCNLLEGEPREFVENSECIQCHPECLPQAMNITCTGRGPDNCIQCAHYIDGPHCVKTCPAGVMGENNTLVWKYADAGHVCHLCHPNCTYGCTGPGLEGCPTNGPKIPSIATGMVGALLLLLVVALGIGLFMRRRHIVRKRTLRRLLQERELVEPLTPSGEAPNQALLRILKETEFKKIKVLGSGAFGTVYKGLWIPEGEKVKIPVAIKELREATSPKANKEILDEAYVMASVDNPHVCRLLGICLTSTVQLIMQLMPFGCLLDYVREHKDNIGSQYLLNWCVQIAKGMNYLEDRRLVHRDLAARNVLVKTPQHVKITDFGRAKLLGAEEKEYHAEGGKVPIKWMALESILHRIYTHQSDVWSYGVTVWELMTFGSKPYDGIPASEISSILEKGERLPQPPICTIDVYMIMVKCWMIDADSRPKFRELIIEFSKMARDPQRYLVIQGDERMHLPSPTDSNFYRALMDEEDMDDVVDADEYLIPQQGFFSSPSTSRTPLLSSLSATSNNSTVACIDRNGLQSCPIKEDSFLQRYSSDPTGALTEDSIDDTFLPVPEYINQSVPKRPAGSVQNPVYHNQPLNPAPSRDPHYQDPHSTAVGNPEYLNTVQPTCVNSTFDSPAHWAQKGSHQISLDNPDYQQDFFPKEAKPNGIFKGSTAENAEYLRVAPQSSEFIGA
Procedure: (§1) An in vitro assay which determines the ability of a test compound to inhibit EGFR (L858R), EGFR (L858R,T790M) and BTK kinases.
(§2) Kinase-tagged T7 phage strains were prepared in an E. coli host derived from the BL21 strain. E. coli were grown to log-phase and infected with T7 phage and incubated with shaking at 32° C. until lysis. The lysates were centrifuged and filtered to remove cell debris. The remaining kinases were produced in HEK-293 cells and subsequently tagged with DNA for qPCR detection. Streptavidin-coated magnetic beads were treated with biotinylated small molecule ligands for 30 minutes at room temperature to generate affinity resins for kinase assays. The liganded beads were blocked with excess biotin and washed with blocking buffer (SeaBlock (Pierce), 1% BSA, 0.05% Tween 20, 1 mM DTT) to remove unbound ligand and to reduce non-specific binding. Binding reactions were assembled by combining kinases, liganded affinity beads, and test compounds in 1× binding buffer (20% SeaBlock, 0.17×PBS, 0.05% Tween 20, 6 mM DTT). All reactions were performed in polystyrene 96-well plates in a final volume of 0.135 ml. The assay plates were incubated at room temperature with shaking for 1 hour and the affinity beads were washed with wash buffer (1×PBS, 0.05% Tween 20). The beads were then re-suspended in elution buffer (lx PBS, 0.05% Tween 20, 0.5 μM non-biotinylated affinity ligand) and incubated at room temperature with shaking for 30 minutes. The kinase concentration in the eluates was measured by qPCR.
(§3) An 11-point 3-fold serial dilution of each test compound was prepared in 100% DMSO at 100× final test concentration and subsequently diluted to 1× in the assay (final DMSO concentration=1%). Kds were determined using a compound top concentration=10,000 nM. If the initial Kd determined was <0.5 nM (the lowest concentration tested), the measurement was repeated with a serial dilution starting at a lower top concentration.
(§4) Binding constants (Kds) were calculated with a standard dose-response curve using the Hill equation: Response=Background+(Signal−Background)/(1+(Kd^Hill Slope/Dose^Hill Slope)). The Hill Slope was set to −1. Curves were fitted using a non-linear least square fit with the Levenberg-Marquardt algorithm.

BTK = BTK (Homo sapiens (Human), UniProt Q06187); experiment: as above
Chain of BTK (Q06187 whole entry): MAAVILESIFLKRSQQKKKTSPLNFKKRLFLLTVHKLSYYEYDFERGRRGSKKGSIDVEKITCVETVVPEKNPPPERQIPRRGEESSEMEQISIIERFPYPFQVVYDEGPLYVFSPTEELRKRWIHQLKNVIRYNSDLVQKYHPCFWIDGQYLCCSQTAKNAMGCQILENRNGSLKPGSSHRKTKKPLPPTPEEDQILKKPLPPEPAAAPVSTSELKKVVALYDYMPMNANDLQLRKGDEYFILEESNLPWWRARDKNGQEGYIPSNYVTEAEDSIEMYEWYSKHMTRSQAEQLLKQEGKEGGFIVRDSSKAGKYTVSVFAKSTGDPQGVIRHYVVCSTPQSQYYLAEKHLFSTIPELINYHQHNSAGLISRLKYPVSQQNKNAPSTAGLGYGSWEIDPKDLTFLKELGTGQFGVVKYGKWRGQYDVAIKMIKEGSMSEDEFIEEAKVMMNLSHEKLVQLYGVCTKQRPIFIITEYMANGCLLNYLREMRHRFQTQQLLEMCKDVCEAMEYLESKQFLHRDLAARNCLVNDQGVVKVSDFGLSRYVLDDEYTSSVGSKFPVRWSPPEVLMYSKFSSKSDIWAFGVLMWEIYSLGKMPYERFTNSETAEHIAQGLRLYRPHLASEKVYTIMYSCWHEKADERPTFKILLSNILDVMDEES
Procedure: as §1, §2, §3, §4

EGFR (L858R) = EGFR (L858R) (Homo sapiens (Human), UniProt P00533, L858R); experiment: as above
Chain of EGFR (L858R) (P00533 25-1210 L858R): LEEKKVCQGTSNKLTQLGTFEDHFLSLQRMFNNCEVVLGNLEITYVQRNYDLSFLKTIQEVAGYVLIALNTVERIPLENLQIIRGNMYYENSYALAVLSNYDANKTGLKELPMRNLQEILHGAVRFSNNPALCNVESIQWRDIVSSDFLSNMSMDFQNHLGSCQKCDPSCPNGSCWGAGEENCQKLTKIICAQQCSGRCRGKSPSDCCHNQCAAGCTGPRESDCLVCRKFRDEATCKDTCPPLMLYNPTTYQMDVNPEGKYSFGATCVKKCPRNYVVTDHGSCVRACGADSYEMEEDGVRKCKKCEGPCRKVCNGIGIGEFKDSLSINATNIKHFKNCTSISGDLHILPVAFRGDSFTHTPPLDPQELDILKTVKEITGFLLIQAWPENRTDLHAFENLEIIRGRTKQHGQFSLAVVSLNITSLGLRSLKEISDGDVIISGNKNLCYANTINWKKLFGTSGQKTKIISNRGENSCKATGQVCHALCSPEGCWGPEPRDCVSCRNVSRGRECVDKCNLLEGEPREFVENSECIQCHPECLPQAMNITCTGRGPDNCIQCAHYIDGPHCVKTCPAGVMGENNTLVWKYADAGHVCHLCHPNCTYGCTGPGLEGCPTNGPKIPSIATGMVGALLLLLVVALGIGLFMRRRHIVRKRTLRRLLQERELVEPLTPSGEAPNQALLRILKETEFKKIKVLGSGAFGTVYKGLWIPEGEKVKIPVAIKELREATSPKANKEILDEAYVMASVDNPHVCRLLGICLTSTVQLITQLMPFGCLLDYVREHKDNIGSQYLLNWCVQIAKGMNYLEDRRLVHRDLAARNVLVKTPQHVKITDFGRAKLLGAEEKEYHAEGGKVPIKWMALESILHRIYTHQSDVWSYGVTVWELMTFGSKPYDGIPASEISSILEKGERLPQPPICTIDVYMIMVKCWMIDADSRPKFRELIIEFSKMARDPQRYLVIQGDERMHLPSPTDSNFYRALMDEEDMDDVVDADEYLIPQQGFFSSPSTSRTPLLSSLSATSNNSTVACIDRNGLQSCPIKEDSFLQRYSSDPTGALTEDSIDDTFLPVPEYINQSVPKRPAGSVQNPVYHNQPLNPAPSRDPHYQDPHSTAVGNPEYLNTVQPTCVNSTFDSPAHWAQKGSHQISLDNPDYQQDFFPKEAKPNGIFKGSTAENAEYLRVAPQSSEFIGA
Procedure: as §1, §2, §3, §4

IC50 [1]	Kd (EGFR (L858R,T790M))	Kd (BTK)	Kd (EGFR (L858R))	SMILES
> 2000 nM	–	–	–	C=CC(=O)N1CCC[C@@H](n2nc(-c3ccc(Oc4ccccc4)cc3)c3c(N)ncnc32)C1 [Ibrutinib, reference compound]
–	270 nM	< 10 nM	54 nM	C=CC(=O)N1CCC[C@@H](n2nc(-c3ccc(Oc4ccc(F)cc4)cc3)c3c(N)ncnc32)C1 [Compound 17, (R)-1-(3-(4-amino-3-(4-(4-fluorophenoxy)phenyl)-1H-pyrazolo[3,4-d]pyrimidin-1-yl)piperidin-1-yl)prop-2-en-1-one]
494 nM	9.3 nM	< 10 nM	6.3 nM	C=CC(=O)N1CCC[C@@H](n2nc(-c3ccc(Oc4ccccc4)c(Cl)c3)c3c(N)ncnc32)C1 [Compound 18, (R)-1-(3-(4-amino-3-(3-chloro-4-phenoxyphenyl)-1H-pyrazolo[3,4-d]pyrimidin-1-yl)piperidin-1-yl)prop-2-en-1-one]
